Reference: a melting point compilation (Tetko et al.; mined from patent text by program, amines drawn as free bases though some values may be those of a salt)

Structure (SMILES)	melting point [°C]
O=C1C(=O)c2ccccc2C2=C1SCC1(CCN(C3CCCC3O)CC1)O2 (centres undefined)	110 to 113
CCOC(=O)c1cn(C2CC2)c2c(OC)c(F)c(F)cc2c1=O	178 to 180
Fc1ccc(N2CCN(CCCNc3ccc(-n4ccnc4)cc3)CC2)cc1	164 to 166
CCCn1c(=O)c2[nH]c(/C=C/c3ccc(OCC)cc3)nc2n(CCC)c1=O	262
Cc1ccc(S(=O)(=O)N2CC2c2ccccc2)cc1 (centres undefined)	92 to 94
CCOC(=O)c1[nH]cc(-c2ccc(F)cc2)c1-c1ccc(F)cc1	157 to 159
Cc1cncn1Cc1cc(C(C)(C)O)cc(C(C)(C)C#N)c1	128 to 131
CCOC(=O)[C@H]1O[C@@H]1C(=O)N[C@@H](CC(C)C)C(=O)c1ccccc1	118 to 119
Cc1ccc(S(=O)(=O)N2CCNCCOCCOCCNCCN(S(=O)(=O)c3ccc(C)cc3)CC2)cc1	121
CCn1nnn(-c2cc(O)c(Cl)cc2Cl)c1=O	149 to 150
N#Cc1cc(-c2nc3cncnc3s2)ccc1Oc1ccccc1O	255 to 256
Nc1nc(OCOC(=O)C2CCCC2)ncc1F	101 to 104
O=C1c2ccccc2N(c2ccccc2)CN1O	156 to 160
CC#CCOc1ccc(C(=O)N(C)C[C@@H](C(=O)NO)N2CCN(S(C)(=O)=O)CC2)cc1	145
O=C1NCN=C(c2ccccc2)c2ccccc21	215
CN1C(=O)CC[C@]2(C)c3ccc(C#Cc4ccccc4)cc3CC[C@@H]12	205 to 208
COCCNCCc1ccc(Nc2ncc3c(n2)-c2ccccc2C(c2ccccc2C(F)(F)F)C3)cc1 (centres undefined)	61 to 62
CCOc1c(Br)cc(C(C)(C)C)cc1C(C)(C)C	55 to 56
COc1cccc(N(C)C(=S)Oc2ccc3c(c2)CCCC3)n1	99 to 100
COc1cn(-c2cc3c(cc2F)OC(F)(F)C(F)(F)O3)nc(-c2ccnn2-c2ccccc2)c1=O	192 to 194
CC(C)(C)OC(=O)N1CCCC[C@@H]1C(=O)c1ccc(Br)cc1	124 to 125
CON=C(C(=O)O)c1csc(NC(=O)CCl)n1	182 to 183
CSc1ccc(-c2ccc(C(=O)Nc3cc4ncc(CN5CCCC5)cc4cc3C)cc2)cc1	198
CCOC(=S)CC/C(C)=C/Cc1c(OC)c(C)c2c(c1OC(C)=O)C(=O)OC2	81 to 84
COc1ccc(C(=O)Nc2ccccc2)cc1NCc1ccccc1F	142 to 144

Structure (SMILES)	melting point [°C]
Cn1ncnc1COc1nn2c(-c3ccccc3F)nnc2cc1-c1cccs1	189 to 190
Cc1ccc(C(=O)NNC(=O)c2ccccc2Cl)cc1	204 to 206
COc1ccc(OC)c(N2Cc3[nH]c(=O)[nH]c(=O)c3C2)c1	308 to 310
COC(=O)[C@H](Cc1ccc(OCCCN(C)Cc2ccccc2)cc1)NC(=O)[C@@H]1CCCN1S(=O)(=O)c1ccc(C)cc1	60 to 70
CNc1nc(SC)ncc1C#N	189 to 190
Cc1cc(C)c2c(-c3ccc(C(C)C)cc3)coc2c1	44 to 45
NC(=O)c1ccc2c(c1)C(=O)C1(CC1)O2	243 to 244
Cc1c(-c2ccc(O)cc2)n(Cc2ccc(OCCN3CCC(O)CC3)cc2)c2ccc(O)cc12	80 to 90
NS(=O)(=O)c1ccc2c(c1)C=C(C(=O)O)C(C(F)(F)F)O2 (centres undefined)	188 to 190
NC(=O)Cc1cccc(C(=O)c2ccccc2)c1N	178 to 180
CC(=O)OCC1OC(n2cc(C(I)=CI)c(=O)[nH]c2=O)CC1OC(C)=O (centres undefined)	76 to 78
COC(=O)C(C)(Oc1cccc(Oc2c(Cl)cc(C(F)(F)F)cc2Cl)c1)[N+](=O)[O-] (centres undefined)	78
CCOCc1cnc2c(NC(=O)c3c(Cl)cccc3Cl)cccc2c1N1CCN(C)C1=O	173 to 177
COc1ccc(C(=O)C=Cc2cc(Br)ccc2O)cc1	177 to 179
CC(C)(C)c1ccc(SN2CCOC2=O)cc1	76 to 81
CCc1nc2c(N)nc3cc(OCC(=O)N4CCOCC4)ccc3c2n1CCOc1ccccc1	208 to 209
COC(=O)C(=C(C)NCC(O)CO)c1nc(NC(C)=O)c([N+](=O)[O-])nc1Cl (centres undefined)	70 to 73
COc1ccc(C(=O)Nc2ccccc2)cc1NCc1ccc(C(=O)O)cc1	> 240
COc1ccc(N2CCN(c3c(C)c(C)c4c(c3C)C(c3ccc(C)cc3)C(C)(C)O4)CC2)cc1OC (centres undefined)	136 to 139
O=c1cc(-c2cc(OCc3ccccc3)cc(OCc3ccccc3)c2)oc2cc(OCC3CO3)ccc12 (centres undefined)	172 to 173
CC(=O)Nc1ccc(Nc2ccccc2[N+](=O)[O-])cc1	164 to 166
Oc1cc2c(cc1O)CN(c1ncnc3c(N4CCOCC4)nc(Cl)nc13)CC2	187 to 189
O=C(O)C(CC(=O)N1CC2CC=CCC2C1)Cc1ccccc1 (centres undefined)	128 to 132
CNC1CCCN(c2ccc3c(NC(=O)CC4CCCCC4)c(Cl)ccc3n2)C1 (centres undefined)	158 to 159
COc1ncccc1-c1cccn2nc(Nc3ccc(C4CCN(CC(=O)N(C)C)CC4)cc3)nc12	173 to 175

Structure (SMILES)	melting point [°C]
Cc1nnc2n1-c1ccccc1C(c1ccc(Cl)cc1)=NN2Cc1ccc(NS(C)(=O)=O)cc1	273 to 275
O=c1c2ccc(Cl)cc2[nH]c2c(=O)n(CCO)nc(O)c12	377 to 378
COc1cc(Cl)nc(S(C)(=O)=O)n1	68 to 74
CCCCNC(=O)ON1C(C)(C)CC(OC(=O)C(CC)(CC)C(=O)OC2CC(C)(C)N(OC(=O)NCCCC)C(C)(C)C2)CC1(C)C	166 to 169
CCCCCCCCCCCCC(Oc1ccc(NS(=O)(=O)CCCC)cc1)C(=O)O (centres undefined)	80 to 82
CC(C)(C)c1nc2cc(N3CCCC3)c(N=C=S)cc2s1	89 to 90
CC(=O)Nc1ccc(SCCN2CC=C(c3ccc(F)cc3)CC2)cc1	150 to 152
ClCc1cnn(-c2ccc(Cl)c(Cl)c2)c1	66 to 67
NC(=O)CC(=O)NCCCOc1cccc(CN2CCCCC2)c1	85.3 to 88.3
C(=C1/CCCc2ccccc21)/c1cnc[nH]1	136 to 138
COc1ccc(CNC(=O)c2cc3c(=O)n(CCC(=O)c4ccccc4)c(=O)n(C)c3s2)cc1	208 to 211
CC12CC(=NO)C(C)(C)C1C(O)C2 (centres undefined)	130 to 133
CC(C)(C)c1cc(CCC(=O)NCCNc2c(Cl)nc(Cl)c(Cl)c2C#N)cc(C(C)(C)C)c1O	150 to 160
COC(=O)c1cccnc1C(=O)c1ccc(-n2ccnc2)cc1	171 to 174
COc1ccccc1NC(C(N)=O)c1c(Cl)cccc1Cl (centres undefined)	192
O=C1CCC(c2ccc(-c3nccs3)cc2)=NN1	265 to 266
CCCCCCCC(=O)Nc1cccc(-c2cc(=O)cc(C(=O)O)o2)c1	242 to 247
Brc1ccn2nc(-c3ccccc3)nc2c1	189 to 191
NS(=O)(=O)c1ccc(C=Nc2ccc(SSc3ccc(N=Cc4ccc(S(N)(=O)=O)cc4)cc3)cc2)cc1	200 to 230
N#Cc1cc2nc(O)c(O)nc2cc1C(F)(F)F	> 300
Nc1ccc(Oc2c(N3CCCC3)cc(C(=O)O)cc2S(N)(=O)=O)cc1	234 to 240
CC(C)(C#N)OC(=O)Nc1ccc(-c2ncn(-c3ccc(OC(F)(F)F)cc3)n2)cc1	172 to 175
CC(=O)O[C@H](CC(=O)c1ccccc1)C(=O)O	118 to 121
CN1C(=O)C(=O)c2cnccc21	140 to 142
CCOC(=O)C(C#N)=C1CCN(c2ccc(N3C[C@H](CNC(C)=S)OC3=O)cc2F)CC1	182 to 185

Structure (SMILES)	melting point [°C]
CCCCCCCCCCCCCCOc1c(CBr)cccc1CBr	59.3 to 59.8
FC(F)(Br)C(F)(F)Oc1ccc(C2(c3ccc(OC(F)(F)C(F)(F)Br)cc3)c3ccccc3-c3ccccc32)cc1	157 to 158
Cc1cc(F)ccc1Nc1nc(N(C)c2ccccc2)c2cc(OCCN(C)C)ccc2n1	112 to 114
CSC(SC)=C(C#N)S(=O)(=O)c1ccccc1	99 to 101
COc1ccc2c3c(oc2c1)CCC(C(=O)O)=C3	228 to 231
COc1ccc(Cc2cc(-c3ccc(Cl)cc3)sc2Cc2ccc(OC)cc2)cc1	125 to 128
COC(=O)/C=C/c1c(F)cc2nn(C)cc2c1C(=O)OC	130 to 132
CC(C)C1NCC(=O)N1CC(=O)NCC(N)=O (centres undefined)	65 to 70
COCCNC(=O)c1cc(C)nc(-c2cccc3cc(Cc4cccc(C(F)(F)F)c4)sc23)c1	115 to 116
CCCCCCCCNC(=O)OC1CCN(C(=O)Oc2ccc(Oc3ccccc3)cc2)CC1	73 to 75
O=C(Nc1ccccc1O)c1ccc(CSc2ccc(O)cc2)cc1	152 to 156
CCCC(=O)C(=O)C(CC1CCCCC1)NC(=O)C(CC(C)C)NC(=O)C(Cc1ccccc1)NC(=O)OC(C)(C)C (centres undefined)	87 to 92
Brc1ccc(Br)c2nc(-c3ccccc3)c(-c3ccccc3)nc12	221 to 223
O=c1[nH]c(CSCc2ccccc2)nc2nccnc12	224 to 226
CCNC(=O)C(C)Oc1ccc(N(C)c2nc3cc(Cl)ccc3o2)cc1 (centres undefined)	141 to 142
CCCCn1c(Cc2cc(OC)ccc2Cl)nc2c(N)ncnc21	138 to 139
CC(C)(C)OC(=O)N1CC=C(C2=C(C#N)C(c3cccc4nonc34)c3c[nH]nc3N2)CC1 (centres undefined)	222
C=S1c2ccccc2N(CCN2CCOCC2)C(=O)C1c1ccc(Cl)cc1 (centres undefined)	169 to 173
N#Cc1cccc(-c2ccc(OCC(CN3C(=O)CCC3=O)N(O)C=O)cc2)c1 (centres undefined)	128
COc1ccccc1-c1ccc2cnc(Nc3ccc4c(c3)N3CCC4CC3)nn12	89 to 95
O=C(NC(=O)c1c(F)cccc1F)Nc1cc(Cl)c(OC(F)(F)C(F)(F)F)cc1Cl	178 to 179
CN1c2ccc(-c3cccc4ccccc34)cc2Sc2cc(-c3cccc4ccccc34)ccc21	185 to 190
S=C1Nc2cc(Br)ccc2N2CCc3cccc1c32	196 to 197
CCOc1ccnc(F)c1N	76 to 77
